Experiment: Inhibition of P-gp in doxorubicin-resistant human MCF7/ADR cells assessed as reversal of doxorubicin resistance by measuring doxorubicin IC50 incubated for 48 hrs by MTT assay (Rvb = doxorubicin alone = 64.8 +/- 2.1 uM)

| SMILES | IC50 |
| --- | --- |
| C=C1[C@H](OC(C)=O)[C@H]2[C@@H](OC(=O)c3ccccc3)[C@@H](C)C[C@]2(OC(C)=O)C(=O)[C@@H](C)/C=C/C(C)(C)C(=O)[C@H](O)[C@H]1OC(C)=O | 13.3 µM |
| C=C1[C@H](OC(C)=O)[C@H]2[C@@H](OC(=O)c3ccccc3)[C@](C)(OC(C)=O)C[C@]2(O)C(=O)[C@@H](C)/C=C/C(C)(C)C(=O)[C@H](OC(C)=O)[C@H]1OC(=O)C(C)C | 12.9 µM |
| C=C1[C@H](OC(C)=O)[C@H]2[C@@H](OC(=O)CC(C)=O)[C@@H](C)C[C@]2(O)C(=O)[C@@H](C)/C=C/C(C)(C)C(=O)[C@H](OC(C)=O)[C@H]1OC(=O)c1ccccc1 | 10.3 µM |
| C=C1[C@H](OC(C)=O)[C@H]2[C@@H](OC(=O)c3ccccc3)[C@@H](C)C[C@]2(OC(C)=O)C(=O)[C@@H](C)/C=C/C(C)(C)C(=O)[C@H](OC(C)=O)[C@H]1OC(=O)c1ccccc1 | 8 µM |
| C=C1[C@H](OC(C)=O)[C@H]2[C@@H](OC(=O)c3ccccc3)[C@](C)(O)C[C@]2(O)C(=O)[C@@H](C)/C=C/C(C)(C)C(=O)[C@H](OC(=O)C(C)C)[C@H]1OC(C)=O | 5 µM |
| C=C1[C@H](OC(C)=O)[C@H]2[C@@H](OC(=O)c3ccccc3)[C@](C)(O)C[C@]2(O)C(=O)[C@@H](C)/C=C/C(C)(C)C(=O)[C@H](OC(C)=O)[C@H]1OC(=O)c1ccccc1 | 7.8 µM |
| C=C1[C@H](O)[C@H]2[C@@H](OC(=O)c3ccccc3)[C@](C)(O)C[C@]2(O)[C@H](OC(C)=O)[C@@H](C)/C=C/C(C)(C)C(=O)[C@H](OC(C)=O)[C@H]1OC(=O)c1ccccc1 | 28 µM |
| C=C1[C@H](O)[C@H]2[C@@H](OC(=O)c3ccccc3)[C@](C)(OC(C)=O)C[C@]2(O)[C@H](OC(C)=O)[C@@H](C)/C=C/C(C)(C)C(=O)[C@H](OC(C)=O)[C@H]1OC(C)=O | 20.6 µM |
| C=C1[C@H](OC(=O)c2ccccc2)[C@@H](OC(C)=O)[C@@H](OC(C)=O)C(C)(C)/C=C/[C@H](C)C(=O)[C@@]2(OC(C)=O)C[C@H](C)[C@H](OC(=O)c3ccccc3)[C@@H]2[C@H]1OC(C)=O | 9.9 µM |
| C=C1[C@H](OC(C)=O)[C@H]2[C@@H](OC(=O)c3ccccc3)[C@@H](C)C[C@]2(OC(C)=O)C(=O)[C@@H](C)/C=C/C(C)(C)C(=O)[C@H](OC(C)=O)[C@H]1OC(C)=O | 9.6 µM |
| C=C1[C@H](OC(C)=O)CC(=O)C(C)(C)/C=C/[C@H](C)C(=O)[C@@]2(OC(C)=O)C[C@H](C)[C@H](OC(=O)c3ccccc3)[C@@H]2[C@H]1OC(C)=O | 13.1 µM |
| C=C1[C@H](OC(C)=O)[C@H]2[C@@H](OC(=O)c3ccccc3)[C@@H](C)C[C@]2(O)C(=O)[C@@H](C)/C=C/C(C)(C)C(=O)[C@H](O)[C@H]1OC(C)=O | 25.3 µM |
| C=C1[C@H](OC(C)=O)[C@H]2[C@@H](OC(=O)c3ccccc3)[C@@H](C)C[C@]2(OC(C)=O)C(=O)[C@@H](C)/C=C/C(C)(C)C(=O)[C@H](O)[C@H]1OC(=O)c1ccccc1 | 9.5 µM |
| C=C1[C@H](OC(=O)c2ccccc2)[C@H]2[C@@H](OC(C)=O)[C@@H](C)C[C@]2(OC(C)=O)C(=O)[C@@H](C)/C=C/C(C)(C)C(=O)[C@H](OC(=O)c2ccccc2)[C@H]1OC(C)=O | 7.3 µM |
| C=C1[C@H](OC(C)=O)[C@H]2[C@@H](OC(=O)c3ccccc3)[C@](C)(OC(C)=O)C[C@]2(O)C(=O)[C@@H](C)/C=C/C(C)(C)C(=O)[C@H](OC(=O)C(C)C)[C@H]1OC(C)=O | 5.3 µM |
| C=C1[C@H](OC(C)=O)CC(=O)C(C)(C)/C=C/[C@H](C)C(=O)[C@@]2(OC(C)=O)C[C@H](C)[C@H](OC(C)=O)[C@@H]2[C@H]1OC(=O)c1ccccc1 | 14.2 µM |
| C=C1[C@H](OC(=O)c2ccccc2)[C@H]2[C@@H](OC(C)=O)[C@@H](C)C[C@]2(OC(C)=O)C(=O)[C@@H](C)/C=C/C(C)(C)C(=O)[C@H](O)[C@H]1OC(C)=O | 21.6 µM |

— BindingDB's records for doi:10.1021/acs.jnatprod.8b00507 (Chinese Academy of Sciences, 2019)
